Reference: patent US12422443B2, “Amino-substituted chromenoquinoline-based fluorescent marker, and preparation and use thereof” (SOOCHOW UNIVERSITY, priority 2021, dated 2025)

Key:
[1] = system: lipid droplets in Hela cells; assay: Lipid droplet labeling, colocalized confocal imaging with Nile Red in Hela cells; type: cell-based; settings: 5 min; for lipid droplet labeling ability (in words): 1a and 1b 6 μM, 1c 5 μM, 1d 8 μM
Text: In the following examples, the cells are imaged by laser confocal microscopy, where excitation at 405 nm is employed in the green light channel, and the fluorescence signal in the range of 468-550 nm is collected; and excitation at 561 nm is employed in the red light channel, and the fluorescence signal in the range of 570-750 nm is collected.
To test the fluorescent labeling ability of the fluorescent marker 1a compared with a commercial lipid droplet marker, the fluorescent marker 1a was prepared into a stock solution in dimethyl sulfoxide, and then added to a conventional cell culture medium, to give a concentration of the fluorescent marker 1a in the cell culture medium of 6 μM. Subsequently, Nile Red (100 nM), a lipid droplet red marker, was added and co-incubated with Hela cells in an incubator at saturated humidity, 37° C., and 5% CO2 for 5 min (the same below); The cells were washed three times with a PBS buffer, and imaged by laser confocal microscopy, where excitation at 405 nm was employed in the green light channel, and the fluorescence signal in the range of 468-550 nm was collected; and excitation at 561 nm was employed in the red light channel, and the fluorescence signal in the range of 570-750 nm was collected. The results are shown in FIG. 5, in which (a) is the bright field, (b) is the cell image with the fluorescent marker 1a, (c) is the cell image with the lipid droplet Red marker, (d) is overlapped image of the green light channel and the red light channel, (e) is the fluorescence intensity of the ROI line in the overlapped image, and (f) is the colocalization assay, where the colocalization coefficient is 0.95.
To verify the labeling effect of the fluorescent marker 1b (6 μM) on lipid droplets in Hela cells, the same experimental method as that with the fluorescent marker 1a was used.
The experimental method with the fluorescent marker 1c (5 μM) was the same as that with the fluorescent marker 1a.
To verify whether Compound 1d can be used in fluorescence imaging of lipid droplets in Hela cells just as the probes 1a-1c do, a cell assay was carried out. The fluorescent marker 1d was prepared into a stock solution in dimethyl sulfoxide, and then added to a conventional cell culture medium, to give a concentration of the fluorescent marker 1d in the cell culture medium of 8 μM. The Hela cells were co-incubated in an incubator at saturated humidity, 37° C., 5% CO2 for 5 min. The cells were washed three times with a PBS buffer, and imaged by laser confocal microscopy, where excitation at 405 nm was employed in the green light channel, and the fluorescence signal in the range of 468-550 nm was collected. […] The results are shown in FIG. 5, in which(s) is the bright field, (t) is the cell image with the fluorescent marker 1d, (u) is the cell image with the lipid droplet Red marker, (v) is overlapped image of the green light channel and the red light channel, (w) is the fluorescence intensity of the ROI line in the overlapped image, and (x) is the colocalization assay, where the colocalization coefficient is 0.90.

[2] = Ultraviolet absorption and fluorescence emission in dichloromethane; type: physicochemical; settings: 10 μM in dichloromethane; for highest fluorescence intensity (emission wavelength): excitation 428 nm (1a), 407 nm (1b), 461 nm (1c), 430 nm (1d), slit 3 nm/3 nm (1d: 5 nm/3 nm)
Protocol: The ultraviolet absorption and fluorescence emission performances of the dyes 1a-1d prepared above (at a concentration of 10 μM) in dichloromethane were tested. The horizontal ordinate is the wavelength, and the vertical ordinate is the absorbance and fluorescence intensity, respectively.
(§1) The ultraviolet absorption and fluorescence emission spectra of the fluorescent marker 1a (at a concentration of 10 μM) in dichloromethane are shown in FIG. 3. The fluorescent marker 1a has the maximum absorption at 452 nm (FIG. 3 (a)); and the fluorescent marker 1a has the highest fluorescence intensity at 532 nm (FIG. 3 (e)), where the excitation wavelength is 428 nm, and the slit width is 3 nm/3 nm.
as §1, with “1b” for “1a”, “473” for “452”, “(b));” for “(a));”, “562” for “532”, “(f)),” for “(e)),”, “407” for “428”
as §1, with “1c” for “1a”, “375” for “452”, “(c));” for “(a));”, “546” for “532”, “(g)),” for “(e)),”, “461” for “428”
The ultraviolet absorption and fluorescence emission spectra of the fluorescent marker 1d (at a concentration of 10 μM) in dichloromethane are shown in FIG. 3. The fluorescent marker 1d has the maximum absorption at 429 nm (FIG. 3 (d)); and the fluorescent marker 1d has the highest fluorescence intensity at 495 nm (FIG. 3 (h)), where the excitation wavelength is 430 nm, and the slit width is 5 nm/3 nm.

[3] = Photostability under iodine-tungsten lamp irradiation (residual absorptivity); type: physicochemical; settings: 10 μM in acetonitrile, 500 W iodine-tungsten lamp at 25 cm, 6 hrs irradiation
Protocol: The photostability of the above prepared dyes 1a-1d was tested (at a concentration of 10 μM). Dyes 1a-1d and the reference substance Cy7 of corresponding weights were weighed, and respectively dissolved in acetonitrile (at a concentration of 10 μM). All samples were irradiated with a Philips iodine-tungsten lamp (500 W), where the distance between the lamp and the sample was set to 25 cm. An 8 cm-thick sodium nitrite (60 g per liter) cold trap was placed between the lamp and the sample, to eliminate the heat and short-wavelength light. The irradiation was continued for 6 hrs, during which UV and fluorescence were performed every half hour. After six hours, the light stability was measured by residual absorptivity calculated based on the change in the absorption intensity at various times before and after the irradiation. […] It can be seen that dyes 1a-1d have higher photostability compared to cyanine dyes.

[4] = system: mitochondria in Hela cells; assay: Mitochondria labeling, colocalized confocal imaging with CMA Ros in Hela cells; type: cell-based
[5] = 6 μM marker with Nile Red (100 nM)

Compound | colocalization coefficient [1, 5] | lipid droplet labeling ability (in words) [1] | maximum absorption [2] [nm] | highest fluorescence intensity (emission wavelength) [2] [nm] | photostability (residual absorptivity) [3] [%] | colocalization coefficient ([1]; 5 μM marker with Nile Red (100 nM)) | mitochondria labeling ability (in words) ([4]; 8 μM) | colocalization coefficient ([4]; 8 μM marker with CMA Ros (100 nM))
CCN(CC)c1ccc2nc3c(cc2c1)c(=O)oc1ccccc13 [1a] | 0.95 | has lipid droplet labeling ability in Hela cells | 452 | 532 | 46 | – | – | –
CCN(CC)c1ccc2nc3c(cc2c1)c(=O)oc1cc(N(CC)CC)ccc13 [1b] | 0.97 | good targeting ability to lipid droplets in Hela cells | 473 | 562 | 43 | – | – | –
CCN(CC)c1ccc2c(c1)oc(=O)c1cc3ccc4ccccc4c3nc12 [1c] | – | good targeting ability to lipid droplets in Hela cells | 375 | 546 | 76 | 0.85 | – | –
CCN(CC)c1ccc2c(c1)oc(=O)c1cc3c(ccc4nc5c(cc43)c(=O)oc3cc(N(CC)CC)ccc35)nc12 [1d] | – | does not stain the lipid droplets in the cells | 429 | 495 | 71 | – | has the ability to label mitochondria | 0.90
